PubChem BioAssay (NCI)
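Growth conditions: 96-well plates. Treatment: test compound, 48 hours, 5 concentrations. Analysis: linear interpolation between bracketing concentrations; unreached endpoints set to highest concentration. GI50 marks 50% less growth. At the TGI there is no net growth.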

Tests used:
Experiment in all cases: growth of human tumour cells (NCI), 48 h
HL-60(TB) leukemia = tested on: HL-60(TB) leukemia
SF-295 CNS = tested on: SF-295 CNS
OVCAR-3 ovarian = tested on: OVCAR-3 ovarian
LOX IMVI melanoma = tested on: LOX IMVI melanoma
UACC-62 melanoma = tested on: UACC-62 melanoma
M14 melanoma = tested on: M14 melanoma
MDA-MB-435 = tested on: MDA-MB-435
HCT-15 colon = tested on: HCT-15 colon
PC-3 prostate = tested on: PC-3 prostate
UO-31 renal = tested on: UO-31 renal
MOLT-4 leukemia = tested on: MOLT-4 leukemia
UACC-257 melanoma = tested on: UACC-257 melanoma
HOP-62 NSCLC = tested on: HOP-62 NSCLC
SR leukemia = tested on: SR leukemia
RXF 393 renal = tested on: RXF 393 renal
K-562 leukemia = tested on: K-562 leukemia
NCI-H522 lung = tested on: NCI-H522 lung
A498 renal = tested on: A498 renal
MCF7 breast = tested on: MCF7 breast
SN12C renal = tested on: SN12C renal
BT-549 breast = tested on: BT-549 breast
A549 NSCLC = tested on: A549 NSCLC
U251 CNS = tested on: U251 CNS
SNB-75 CNS = tested on: SNB-75 CNS
HCC-2998 colon = tested on: HCC-2998 colon
CAKI-1 renal = tested on: CAKI-1 renal
NCI-H460 lung = tested on: NCI-H460 lung
HOP-92 NSCLC = tested on: HOP-92 NSCLC
SNB-19 CNS = tested on: SNB-19 CNS
CCRF-CEM leukemia = tested on: CCRF-CEM leukemia
MALME-3M melanoma = tested on: MALME-3M melanoma
NCI-H226 lung = tested on: NCI-H226 lung
HT29 colon = tested on: HT29 colon
MDA-MB-231 breast = tested on: MDA-MB-231 breast
NCI/ADR-RES ovarian = tested on: NCI/ADR-RES ovarian
KM12 colon = tested on: KM12 colon
SK-OV-3 ovarian = tested on: SK-OV-3 ovarian
ACHN renal = tested on: ACHN renal
SK-MEL-5 melanoma = tested on: SK-MEL-5 melanoma
HCT-116 colon = tested on: HCT-116 colon
OVCAR-4 ovarian = tested on: OVCAR-4 ovarian
OVCAR-5 ovarian = tested on: OVCAR-5 ovarian
SK-MEL-28 melanoma = tested on: SK-MEL-28 melanoma
T-47D breast = tested on: T-47D breast
HS 578T breast = tested on: HS 578T breast
TK-10 renal = tested on: TK-10 renal
SF-268 CNS = tested on: SF-268 CNS
NCI-H23 lung = tested on: NCI-H23 lung
SF-539 CNS = tested on: SF-539 CNS
786-0 renal = tested on: 786-0 renal
IGROV1 ovarian = tested on: IGROV1 ovarian
SW-620 colon = tested on: SW-620 colon
COLO 205 colon = tested on: COLO 205 colon
OVCAR-8 ovarian = tested on: OVCAR-8 ovarian
RPMI-8226 leukemia = tested on: RPMI-8226 leukemia
DU-145 prostate = tested on: DU-145 prostate

For `CC1=C(CC(=O)c2cccc([N+](=O)[O-])c2)C(=O)c2ccccc2C1=O`, the GI50 (HL-60(TB) leukemia) was 2.88 µM, the TGI (HL-60(TB) leukemia) was 7.8 µM and the GI50 (SF-295 CNS) was 17.7 µM. For the same compound, the TGI (SF-295 CNS) was 36.4 µM, the GI50 (OVCAR-3 ovarian) was 2.82 µM and the TGI (OVCAR-3 ovarian) was 9.34 µM. It also gave a GI50 (LOX IMVI melanoma) of 2.22 µM, a TGI (LOX IMVI melanoma) of 8.31 µM and a GI50 (UACC-62 melanoma) of 2.63 µM. The TGI (UACC-62 melanoma) was 8.4 µM, the GI50 (M14 melanoma) was 6.66 µM and the TGI (M14 melanoma) was 22.3 µM. For the same compound, the GI50 (MDA-MB-435) was 2.13 µM, the TGI (MDA-MB-435) was 4.04 µM and the GI50 (HCT-15 colon) was 3.79 µM. For the same compound, the TGI (HCT-15 colon) was 19.5 µM, the GI50 (PC-3 prostate) was 7.14 µM and the TGI (PC-3 prostate) was 63.2 µM. For the same compound, the GI50 (UO-31 renal) was 10.7 µM, the TGI (UO-31 renal) was 28.8 µM and the GI50 (MOLT-4 leukemia) was 3.27 µM. The TGI (MOLT-4 leukemia) was 14.1 µM, the GI50 (UACC-257 melanoma) was 3.94 µM and the TGI (UACC-257 melanoma) was 16.1 µM. The GI50 (HOP-62 NSCLC) was 4.05 µM, the TGI (HOP-62 NSCLC) was 16.1 µM and the GI50 (SR leukemia) was 3.21 µM. For the same compound, the TGI (SR leukemia) was 12.6 µM, the GI50 (RXF 393 renal) was 3.14 µM and the TGI (RXF 393 renal) was 16.6 µM. It also gave a GI50 (K-562 leukemia) of 7.25 µM, a TGI (K-562 leukemia) of 38.9 µM and a GI50 (NCI-H522 lung) of 2.97 µM. The TGI (NCI-H522 lung) was 8.84 µM, the GI50 (A498 renal) was 42.5 µM and the TGI (A498 renal) was > 100 µM. The GI50 (MCF7 breast) was 1.41 µM, the TGI (MCF7 breast) was 3.65 µM and the GI50 (SN12C renal) was 2.61 µM. It also gave a TGI (SN12C renal) of 8.39 µM, a GI50 (BT-549 breast) of 13.2 µM and a TGI (BT-549 breast) of 26.5 µM. The GI50 (A549 NSCLC) was 15.6 µM, the TGI (A549 NSCLC) was 36.2 µM and the GI50 (U251 CNS) was 6.74 µM. It also gave a TGI (U251 CNS) of 21.6 µM, a GI50 (SNB-75 CNS) of 2.22 µM and a TGI (SNB-75 CNS) of 10.2 µM. The GI50 (HCC-2998 colon) was 38 µM, the TGI (HCC-2998 colon) was > 100 µM and the GI50 (CAKI-1 renal) was 21.7 µM. For the same compound, the TGI (CAKI-1 renal) was > 100 µM, the GI50 (NCI-H460 lung) was 18.2 µM and the TGI (NCI-H460 lung) was > 100 µM. The GI50 (HOP-92 NSCLC) was 4.38 µM, the TGI (HOP-92 NSCLC) was 17.7 µM and the GI50 (SNB-19 CNS) was > 100 µM. The TGI (SNB-19 CNS) was > 100 µM, the GI50 (CCRF-CEM leukemia) was 3.19 µM and the TGI (CCRF-CEM leukemia) was 19.3 µM. For the same compound, the GI50 (MALME-3M melanoma) was 4.95 µM, the TGI (MALME-3M melanoma) was 18.3 µM and the GI50 (NCI-H226 lung) was 18.7 µM. The TGI (NCI-H226 lung) was 46.5 µM, the GI50 (HT29 colon) was 20.1 µM and the TGI (HT29 colon) was 58.8 µM. The GI50 (MDA-MB-231 breast) was 1.89 µM, the TGI (MDA-MB-231 breast) was 12.7 µM and the GI50 (NCI/ADR-RES ovarian) was 3.38 µM. The TGI (NCI/ADR-RES ovarian) was 20.6 µM, the GI50 (KM12 colon) was 17.3 µM and the TGI (KM12 colon) was 49.5 µM. For the same compound, the GI50 (SK-OV-3 ovarian) was 28.6 µM, the TGI (SK-OV-3 ovarian) was 99.2 µM and the GI50 (ACHN renal) was 2.96 µM. It also gave a TGI (ACHN renal) of 11.9 µM, a GI50 (SK-MEL-5 melanoma) of 1.67 µM and a TGI (SK-MEL-5 melanoma) of 3.73 µM. The GI50 (HCT-116 colon) was 3.01 µM, the TGI (HCT-116 colon) was 10.6 µM and the GI50 (OVCAR-4 ovarian) was 1.86 µM. It also gave a TGI (OVCAR-4 ovarian) of 7 µM, a GI50 (OVCAR-5 ovarian) of 6.98 µM and a TGI (OVCAR-5 ovarian) of 20.5 µM. For the same compound, the GI50 (SK-MEL-28 melanoma) was 3.54 µM, the TGI (SK-MEL-28 melanoma) was 13.9 µM and the GI50 (T-47D breast) was 2.46 µM. For the same compound, the TGI (T-47D breast) was 8.47 µM, the GI50 (HS 578T breast) was 4.74 µM and the TGI (HS 578T breast) was 48.6 µM. The GI50 (TK-10 renal) was 39.7 µM, the TGI (TK-10 renal) was 85.8 µM and the GI50 (SF-268 CNS) was 9.19 µM. For the same compound, the TGI (SF-268 CNS) was 26.9 µM, the GI50 (NCI-H23 lung) was 9.12 µM and the TGI (NCI-H23 lung) was 36.9 µM. The GI50 (SF-539 CNS) was 3.02 µM, the TGI (SF-539 CNS) was 10.9 µM and the GI50 (786-0 renal) was 14.8 µM. The TGI (786-0 renal) was 35.4 µM, the GI50 (IGROV1 ovarian) was 4.62 µM and the TGI (IGROV1 ovarian) was 29 µM. It also gave a GI50 (SW-620 colon) of 4.01 µM, a TGI (SW-620 colon) of 18.9 µM and a GI50 (COLO 205 colon) of 19.7 µM. For the same compound, the TGI (COLO 205 colon) was 37.6 µM, the GI50 (OVCAR-8 ovarian) was 5.87 µM and the TGI (OVCAR-8 ovarian) was 48.9 µM. The GI50 (RPMI-8226 leukemia) was 4.42 µM, the TGI (RPMI-8226 leukemia) was 37.4 µM and the GI50 (DU-145 prostate) was 7.55 µM. It also gave a TGI (DU-145 prostate) of 20.1 µM.
